Measurements taken from ChEMBL document CHEMBL1201862, “PubChem BioAssay data set” (2004).
Active and inactive are the calls of the source.

Assays:
[1] = target: T1, Heat shock factor protein 1 (Mus musculus, UniProt P38532); test: inhibition of MG132-induced HSE-luciferase signal, confirmation, cell-based, NIH3T3, luminescence, dose retest (AID 2382); format: functional;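 also: NIH3T3 fibroblasts with HSF1-driven luciferase reporter stressed by proteasome inhibitor MG132; luminescence from HSF1-driven luciferase expression after 8 hours of MG132 stress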
T1 sequence (P38532 whole entry): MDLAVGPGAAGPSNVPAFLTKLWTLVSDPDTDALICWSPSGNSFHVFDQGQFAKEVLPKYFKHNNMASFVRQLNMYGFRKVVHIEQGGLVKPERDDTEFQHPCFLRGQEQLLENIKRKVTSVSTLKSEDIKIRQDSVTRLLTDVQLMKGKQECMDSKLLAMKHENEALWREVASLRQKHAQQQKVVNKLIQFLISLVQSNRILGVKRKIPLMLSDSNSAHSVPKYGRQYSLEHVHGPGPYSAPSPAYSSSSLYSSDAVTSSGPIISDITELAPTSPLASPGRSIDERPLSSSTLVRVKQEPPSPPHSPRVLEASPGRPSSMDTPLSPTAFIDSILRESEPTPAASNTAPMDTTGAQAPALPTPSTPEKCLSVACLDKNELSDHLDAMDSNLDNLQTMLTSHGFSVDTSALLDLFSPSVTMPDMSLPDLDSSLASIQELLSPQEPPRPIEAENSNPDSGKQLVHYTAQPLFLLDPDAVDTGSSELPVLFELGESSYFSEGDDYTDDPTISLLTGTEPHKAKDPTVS

[2] = target: E3 ubiquitin-protein ligase Mdm2 (Homo sapiens, UniProt Q00987); test: enhancers of MDM2-luciferase reporter signal, concentration-effect titration, project on inhibitors of MDM2 ubiquitin ligase, cellular assay, luminescent readout, 384-well plate format (AID 1394); format: functional;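 also: MDM2 E3 inhibitors raise luminescence so EC50 is for signal enhancement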
E3 ubiquitin-protein ligase Mdm2, sequence (Q00987 whole entry): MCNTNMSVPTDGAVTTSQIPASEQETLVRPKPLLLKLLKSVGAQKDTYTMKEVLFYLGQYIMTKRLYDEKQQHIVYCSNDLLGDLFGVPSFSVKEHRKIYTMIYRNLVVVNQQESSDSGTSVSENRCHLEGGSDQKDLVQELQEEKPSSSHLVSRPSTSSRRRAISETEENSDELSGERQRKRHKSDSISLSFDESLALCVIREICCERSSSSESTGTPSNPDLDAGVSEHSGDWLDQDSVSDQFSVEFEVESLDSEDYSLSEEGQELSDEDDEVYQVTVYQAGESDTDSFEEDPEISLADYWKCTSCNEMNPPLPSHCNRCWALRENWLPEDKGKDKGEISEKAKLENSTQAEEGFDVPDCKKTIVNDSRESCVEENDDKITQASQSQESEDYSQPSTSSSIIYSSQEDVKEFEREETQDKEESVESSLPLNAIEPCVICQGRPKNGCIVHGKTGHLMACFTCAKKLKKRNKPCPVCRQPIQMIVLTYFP

[3] = target: Sphingosine 1-phosphate receptor 2 (Homo sapiens, UniProt O95136); test: Dose Response Cell Based Assay for Agonists of the S1P2 Receptor of Purchased Analogues. [Related pubchem assays: 729, 843, 854, 736 ]; format: functional
Sphingosine 1-phosphate receptor 2, sequence (O95136 whole entry): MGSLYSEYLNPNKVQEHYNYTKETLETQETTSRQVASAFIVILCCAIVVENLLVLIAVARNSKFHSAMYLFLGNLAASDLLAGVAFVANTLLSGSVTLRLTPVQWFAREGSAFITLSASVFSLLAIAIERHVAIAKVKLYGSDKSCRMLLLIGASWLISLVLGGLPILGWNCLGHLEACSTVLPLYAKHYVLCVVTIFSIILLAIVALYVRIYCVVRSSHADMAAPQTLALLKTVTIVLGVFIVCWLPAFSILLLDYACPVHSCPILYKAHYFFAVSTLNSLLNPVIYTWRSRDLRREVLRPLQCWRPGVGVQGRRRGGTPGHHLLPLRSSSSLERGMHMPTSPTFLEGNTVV

[4] = target: T2, Corticotropin-releasing factor receptor 2/Corticotropin-releasing factor-binding protein (Homo sapiens, UniProt P24387+Q13324); test: Dose Response confirmation of uHTS hits for small molecule antagonists of the CRF-binding protein and CRF-R2 receptor complex.; format: functional; settings: read-out: IC50_Mean
T2 sequence (Q13324 whole entry): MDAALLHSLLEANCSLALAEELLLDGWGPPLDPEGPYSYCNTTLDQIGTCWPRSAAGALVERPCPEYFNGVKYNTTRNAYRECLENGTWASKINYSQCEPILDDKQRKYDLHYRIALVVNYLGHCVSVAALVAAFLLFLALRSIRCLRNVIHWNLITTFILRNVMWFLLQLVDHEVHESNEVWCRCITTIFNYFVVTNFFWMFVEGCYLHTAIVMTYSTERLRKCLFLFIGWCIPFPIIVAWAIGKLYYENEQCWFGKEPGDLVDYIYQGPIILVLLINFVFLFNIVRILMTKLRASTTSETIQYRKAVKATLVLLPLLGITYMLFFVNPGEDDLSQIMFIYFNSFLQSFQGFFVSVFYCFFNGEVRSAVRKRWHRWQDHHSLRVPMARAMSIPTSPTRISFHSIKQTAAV
T2 sequence (P24387 whole entry): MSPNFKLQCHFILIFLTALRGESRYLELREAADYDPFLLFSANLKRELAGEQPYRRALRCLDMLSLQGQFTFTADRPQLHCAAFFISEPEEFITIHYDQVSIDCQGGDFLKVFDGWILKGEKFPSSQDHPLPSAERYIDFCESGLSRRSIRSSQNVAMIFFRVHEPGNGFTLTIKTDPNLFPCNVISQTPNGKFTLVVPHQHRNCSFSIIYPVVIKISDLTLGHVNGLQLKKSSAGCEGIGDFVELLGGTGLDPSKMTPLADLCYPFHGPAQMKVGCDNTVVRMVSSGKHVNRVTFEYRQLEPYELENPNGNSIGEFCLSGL

[5] = target: Solute carrier family 12 member 2/member 5 (Homo sapiens, UniProt P55011+Q9H2X9); test: KCC2 and NKCC1 inhibition by rubidium flux, cell-based, NKCC1 counter-screen (AID 1734); format: functional, HEK293
[6] = target: T2, Corticotropin-releasing factor receptor 2/Corticotropin-releasing factor-binding protein; test: activators of CRF receptor 2 with binding protein – uHTS hits, confirmation (AID 602473); format: functional; settings: read-out: EC50_Mean
[7] = cytotoxicity in HEK-293T cells, dose response, cytotoxicity control for BCR NF-kB inhibitor project, luminescence, B-cell screen hits (AID 489021); format: functional, cell-based;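 also: HEK-293T cells carrying an NF-kB luciferase reporter; cells exposed to compound for about 14 hours before viability readout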
[8] = C. albicans growth with fluconazole, confirmation, fluorescence, retest (AID 2467); format: functional, cell-based
[9] = control 3'UTR Renilla luciferase suppression, dose response, counter-screen for Shn3 inhibitor project, cell-based, Clone20-Shn3RL, cherry-picked (AID 624133); format: functional
[10] = HepG2 cell cytotoxicity, dose response, cytotoxicity control for Shn3 inhibitor project, CellTiter-Glo, cherry-picked (AID 624134); format: functional, cell-based
[11] = target: COUP transcription factor 2 (Homo sapiens, UniProt P24468); test: Luminescence-based cell-based high throughput dose response assay to identify inhibitors of COUP-TFII (NR2F2).; format: functional;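 also: HEK293 cells transiently cotransfected with COUP-TFII expression vector and reporter; luciferase reporter luminescence driven by COUP-TFII from the pX2-168 reporter plasmid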
COUP transcription factor 2, sequence (P24468 whole entry): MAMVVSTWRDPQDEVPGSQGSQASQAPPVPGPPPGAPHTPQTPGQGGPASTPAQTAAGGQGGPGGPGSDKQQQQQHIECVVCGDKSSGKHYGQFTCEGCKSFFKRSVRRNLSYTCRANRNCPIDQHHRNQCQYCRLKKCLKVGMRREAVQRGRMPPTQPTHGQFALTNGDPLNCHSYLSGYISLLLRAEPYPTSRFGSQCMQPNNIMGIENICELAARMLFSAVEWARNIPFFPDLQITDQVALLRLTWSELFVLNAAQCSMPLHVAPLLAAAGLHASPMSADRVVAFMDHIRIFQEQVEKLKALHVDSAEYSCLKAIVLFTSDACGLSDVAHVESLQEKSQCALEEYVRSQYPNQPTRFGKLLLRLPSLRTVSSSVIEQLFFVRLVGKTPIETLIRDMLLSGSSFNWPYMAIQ

INS1 = test: beta cell apoptosis inhibitors, cytokine rescue, dose response, luminescence, retest (AID 449756); format: functional, cell-based; settings: Rattus norvegicus;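 also: cell death triggered by IL-1 beta plus TNF-alpha plus IFN-gamma mixture; protective hits raise ATP signal compared with cytokine alone wells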
[12] = NIH-3T3 fibroblast cytotoxicity, dose response, cytotoxicity control, cell-based, fluorescence, Alamar Blue, secondary assay (AID 2327); format: functional;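 also: NIH-3T3 mouse fibroblasts cultured with fluconazole at 8 µg/mL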
Galanin receptor type 2 = Galanin receptor type 2 (Homo sapiens, UniProt O43603); test: Dose Response cell-based high-throughput screening assay to identify antagonists of galanin receptor 2 (GALR2). [Related pubchem assays: 828, 866 ]; format: functional
Galanin receptor type 2, sequence (O43603 whole entry): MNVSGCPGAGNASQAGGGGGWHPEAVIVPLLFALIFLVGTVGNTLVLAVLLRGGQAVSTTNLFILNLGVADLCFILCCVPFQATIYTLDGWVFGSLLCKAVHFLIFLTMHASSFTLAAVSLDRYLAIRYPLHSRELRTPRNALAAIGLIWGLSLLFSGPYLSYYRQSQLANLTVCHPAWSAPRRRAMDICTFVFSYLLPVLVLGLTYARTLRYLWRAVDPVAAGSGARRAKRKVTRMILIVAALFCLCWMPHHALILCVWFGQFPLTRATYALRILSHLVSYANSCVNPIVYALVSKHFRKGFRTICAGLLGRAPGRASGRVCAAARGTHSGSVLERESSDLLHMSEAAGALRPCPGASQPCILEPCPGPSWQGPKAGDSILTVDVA

[13] = Shn3 3'UTR reporter inhibitors, dose response, cell-based, Clone20 osteoblasts, firefly luciferase, cherry-picked (AID 624132); format: functional;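 also: firefly luciferase luminescence from reporter carrying the Shn3 3'UTR in osteoblasts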
[14] = Luminescence Cell-Based Dose Response HTS to Identify Activators of Luciferase Translation or Activity in H4 […] Cells. [Related pubchem assays: 1829 (Project Summary), 1814 (Primary HTS)]; format: functional
[15] = target: Protein-tyrosine kinase 2-beta (Homo sapiens, UniProt Q14289);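 also: potency of inhibitors of PYK2 kinase phosphorylation of poly-GT substrate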
Protein-tyrosine kinase 2-beta, sequence (Q14289 whole entry): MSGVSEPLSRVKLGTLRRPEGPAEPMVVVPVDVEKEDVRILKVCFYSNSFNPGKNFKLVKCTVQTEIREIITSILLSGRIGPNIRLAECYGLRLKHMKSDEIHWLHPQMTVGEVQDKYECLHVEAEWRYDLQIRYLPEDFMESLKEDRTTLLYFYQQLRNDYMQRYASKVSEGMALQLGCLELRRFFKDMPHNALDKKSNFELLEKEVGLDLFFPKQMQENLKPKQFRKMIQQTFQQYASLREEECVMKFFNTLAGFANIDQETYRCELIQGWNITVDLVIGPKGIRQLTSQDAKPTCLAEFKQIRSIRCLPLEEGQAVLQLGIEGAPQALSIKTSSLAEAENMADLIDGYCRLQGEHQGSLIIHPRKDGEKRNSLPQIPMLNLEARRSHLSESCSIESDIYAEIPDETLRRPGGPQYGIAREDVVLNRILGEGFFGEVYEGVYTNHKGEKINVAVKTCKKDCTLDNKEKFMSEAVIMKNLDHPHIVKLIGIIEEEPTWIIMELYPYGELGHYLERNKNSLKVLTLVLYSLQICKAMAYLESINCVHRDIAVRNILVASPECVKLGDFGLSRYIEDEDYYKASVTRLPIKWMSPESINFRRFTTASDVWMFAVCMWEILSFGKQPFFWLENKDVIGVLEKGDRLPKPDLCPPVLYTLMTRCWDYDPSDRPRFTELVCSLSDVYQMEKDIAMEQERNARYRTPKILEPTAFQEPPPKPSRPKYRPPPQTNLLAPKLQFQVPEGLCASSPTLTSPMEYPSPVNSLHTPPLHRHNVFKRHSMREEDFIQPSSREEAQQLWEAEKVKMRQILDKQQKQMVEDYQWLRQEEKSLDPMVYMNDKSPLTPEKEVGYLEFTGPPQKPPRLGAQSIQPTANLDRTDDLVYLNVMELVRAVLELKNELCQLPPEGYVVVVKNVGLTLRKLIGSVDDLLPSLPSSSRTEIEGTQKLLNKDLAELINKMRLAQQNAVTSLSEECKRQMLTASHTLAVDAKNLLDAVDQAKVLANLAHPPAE

[16] = Luminescence Cell-Based Dose Confirmation HTS to Identify Activators of 5'UTR Stem-Loop Driven Alpha-Synuclein mRNA Translation in H4 Neuroglioblastoma Cells. [Related pubchem assays: 1829 (Project Summary), 1814 (Primary HTS)]; format: functional
[17] = cytotoxicity in MIN6 insulinoma cells, dose response, cytotoxicity control, cell-based, mouse insulinoma (AID 2122); format: functional;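 also: confirmatory high-throughput counterscreen run to flag cytotoxic compounds; mouse MIN-6 beta cells carrying an insulin promoter eGFP reporter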
H4 = test: Luminescence Cell-Based Dose Response HTS to Identify Activators of 5'UTR Stem-Loop Driven Prion Protein mRNA Translation in H4 Neuroglioblastoma Cells. [Related pubchem assays: 1829 (Project Summary), 1814 (Primary HTS)]; format: functional; settings: Homo sapiens
[18] = insulin promoter down-regulators in MIN6 cells, imaging, high-content screening, mouse beta cells (AID 1628); format: functional
Estrogen receptor beta = Estrogen receptor beta (Homo sapiens, UniProt Q92731);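 also: recombinant ER-beta bound to coactivator SRC1 peptide in presence of estradiol agonist; inhibitors block coactivator peptide binding and lower the FRET signal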
Estrogen receptor beta, sequence (Q92731 whole entry): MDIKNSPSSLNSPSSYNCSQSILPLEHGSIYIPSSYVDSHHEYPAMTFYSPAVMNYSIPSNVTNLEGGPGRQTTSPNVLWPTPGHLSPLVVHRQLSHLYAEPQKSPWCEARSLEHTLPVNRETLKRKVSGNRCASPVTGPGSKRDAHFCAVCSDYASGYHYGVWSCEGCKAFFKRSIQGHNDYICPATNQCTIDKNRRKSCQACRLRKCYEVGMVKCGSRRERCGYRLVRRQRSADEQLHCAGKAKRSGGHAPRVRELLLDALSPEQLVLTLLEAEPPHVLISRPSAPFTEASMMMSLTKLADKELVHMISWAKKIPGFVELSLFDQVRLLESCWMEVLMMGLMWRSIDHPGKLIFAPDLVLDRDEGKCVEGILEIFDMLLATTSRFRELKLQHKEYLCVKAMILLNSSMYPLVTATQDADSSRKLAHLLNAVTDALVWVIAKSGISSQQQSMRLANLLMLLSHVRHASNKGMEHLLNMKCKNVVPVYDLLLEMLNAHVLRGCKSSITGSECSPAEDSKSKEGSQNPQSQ

[19] = HepG2 cell cytotoxicity, dose response, cytotoxicity control, cherry-picked samples (AID 1159577); format: functional, cell-based
[20] = P. falciparum Dd2 growth inhibitors, dose response, SYBR Green, cherry-picked samples (AID 1159567); format: functional, cell-based
[21] = target: G-protein coupled receptor 183 (Homo sapiens, UniProt P32249); test: SAR confirmation of small molecule antagonists of the EBI2 receptor via a luminescent beta-arrestin assa.; format: functional
G-protein coupled receptor 183, sequence (P32249 whole entry): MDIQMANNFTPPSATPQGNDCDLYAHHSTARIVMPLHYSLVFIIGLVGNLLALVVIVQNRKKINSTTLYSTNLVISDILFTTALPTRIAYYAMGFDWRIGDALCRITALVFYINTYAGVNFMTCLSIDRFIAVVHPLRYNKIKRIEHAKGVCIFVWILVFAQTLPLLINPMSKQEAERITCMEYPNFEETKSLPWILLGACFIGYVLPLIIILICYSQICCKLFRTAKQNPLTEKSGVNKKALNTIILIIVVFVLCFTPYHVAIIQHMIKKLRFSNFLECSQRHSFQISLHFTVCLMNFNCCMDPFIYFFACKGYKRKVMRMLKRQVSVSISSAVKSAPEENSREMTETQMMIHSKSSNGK

Cytochrome P450 2C19 = Cytochrome P450 2C19 (Homo sapiens, UniProt P33261); test: qHTS Assay for Inhibitors and Substrates of Cytochrome P450 2C19. [Related pubchem assays: 410 ]; format: ADME; settings: read-out: Potency
Cytochrome P450 2C19, sequence (P33261 whole entry): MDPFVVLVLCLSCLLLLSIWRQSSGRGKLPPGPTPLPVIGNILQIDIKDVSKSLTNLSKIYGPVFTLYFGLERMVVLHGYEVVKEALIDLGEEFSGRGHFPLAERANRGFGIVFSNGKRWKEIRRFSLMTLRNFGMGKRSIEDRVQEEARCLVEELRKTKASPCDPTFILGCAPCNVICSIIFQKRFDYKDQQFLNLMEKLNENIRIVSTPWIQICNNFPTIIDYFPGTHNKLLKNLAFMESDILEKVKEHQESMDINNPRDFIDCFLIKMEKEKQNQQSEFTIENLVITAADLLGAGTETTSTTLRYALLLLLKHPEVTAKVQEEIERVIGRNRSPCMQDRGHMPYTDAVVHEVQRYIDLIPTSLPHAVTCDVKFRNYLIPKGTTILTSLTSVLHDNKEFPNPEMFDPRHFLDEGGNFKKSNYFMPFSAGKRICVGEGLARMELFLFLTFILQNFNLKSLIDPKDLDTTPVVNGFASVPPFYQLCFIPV

For `CCOC(=O)/C=C/C(=O)Nc1ccccc1-c1ccccc1NC(=O)/C=C/C(=O)OCC`, the EC50 [1] was 14.4 µM (active) and the EC50 [2] was 4.34 µM (active).

In the case of `Cc1cc(C(=O)CN2C(=O)NC(Cc3ccccc3)C2=O)c(C)n1Cc1cccs1` (stereo unspecified), the EC50 [3] is reported as > 30 µM (not active).

In the case of `O=C(NCCOc1ccccc1F)c1ccccc1SCc1ccc(F)cc1`, the IC50 [4] is reported as > 47.1 µM (inactive), the IC50 [5] is reported as 2.2 µM (active) and the EC50 [6] is reported as > 53 µM (inactive).

In the case of `Cc1ccc(S(=O)(=O)CC2CSc3nc4ccccc4n32)cc1` (stereo unspecified), the IC50 [7] is reported as > 80 µM (inactive), the EC50 [8] is reported as 1.15 µM (active) and the AC50 [9] is reported as 24.4 µM (active). For the same compound, the AC50 [10] was 0.592 µM (active), the IC50 [11] was 4.21 µM (active) and the AC50 (INS1) was 3.55 µM (active). The EC50 [12] was > 160 µM (inactive), the IC50 (Galanin receptor type 2) was > 42 µM (not active) and the AC50 [13] was 0.347 µM (active).

For `Cc1ccc2[nH]c3c(NCc4ccco4)ncnc3c2c1`, the EC50 [14] was 20.1 µM (active), the IC50 [15] was > 69.5 µM (not active) and the EC50 [16] was 29.1 µM (active). For the same compound, the IC50 [17] was 2.95 µM (active), the EC50 (H4) was 17.8 µM (active) and the IC50 [18] was 2.53 µM (active).

With `CCCCCCN/C=C1\C(=O)CC(C)(C)C(C(=O)OC)C1=O` (stereo unspecified) the IC50 (Estrogen receptor beta) was > 50 µM (not active).

In the case of `COc1ccccc1NC(=O)N1CCCCN2[C@@H](CO)[C@@H](c3ccc(C#CC4CC4)cc3)[C@@H]2C1`, the AC50 [19] is reported as 9.69 µM (active) and the AC50 [20] is reported as 1.03 µM (active).

In the case of `Cc1cc(CN2CCN(C(=O)/C=C/c3ccc(Br)cc3)CC2)ccc1F`, the IC50 [21] is reported as 0.0015 µM (active).

With `CCCn1c(=O)[nH]c2nc(-c3ccc(S(=O)(=O)O)cc3)[nH]c2c1=O` the AC50 (Cytochrome P450 2C19) was 7.94 µM (inconclusive).
